In patent publication US20240294550A1, “8-OXA-3-AZABICYCLO[3.2.1]OCTANE COMPOUNDS OR SALT THEREOF, AND PREPARATION METHOD AND USE THEREOF” (LITTDD MEDICINES LTD, priority 2021, published 2024):
In brackets after ≈: the same amount, converted by molar mass. Where two headings read alike, the source gives them in different places.

Key:
[1] = Equilibrium solubility in FaSSIF; type: physicochemical; conditions: thermodynamic from solid; FaSSIF pH 6.5, shaken 24 hours
Description: The compound powder was weighed into a volumetric flask, 450 μL of pH 6.5 FaSSIF solution was added to obtain a supersaturated suspension, the samples were vortexed for at least 2 minutes, and the volumetric flasks were shaken on a vibrating screen at 800 rpm for 24 hours, and then centrifuged at 4000 rpm for 20 minutes. The compressed filtrate was added to a HPLC system, and the concentrations were calculated by a standard curve method.

ATR = ATR (Homo sapiens (Human), UniProt Q13535); test: ATR kinase inhibition assay (HTRF); type: biochemical; conditions: p53 substrate, ATP 150 nM
[2] = Pharmacokinetic (PK) assay in mice; type: in vivo; conditions: CD-1 mice; for AUC(0-t): read-out: AUC0-24 h
Description: The PK of each compound was determined as follows: 6 CD-1 mice (obtained from Shanghai Lingchang Biotechnology Co., Ltd.) were divided into two groups, 3 mice in each group. […] Blood samples were collected from saphenous vein of lower leg in each group at 0, 0.083, 0.25, 0.5, 1, 2, 4, 6, 8 and 24 h after administration. Approximately 40 μL of the blood samples were collected in anticoagulant tubes containing EDTA-K2. Immediately after collection, the tubes were inverted at least 5 times to ensure adequate mixing, and then placed on ice. The blood samples collected at each time point were centrifuged at 4° C., 8000 rpm for 5 minutes to obtain plasma. Another 1.5 mL centrifuge tube was marked with the compound name, animal number, and time point, and the plasma was transferred to this tube. The plasma was stored at −80° C. until analysis.
Compound concentrations in plasma were determined by UPLC-MS/MS method, and the pharmacokinetic parameters were calculated by Phoenix WinNolin 6.4 pharmacokinetic software on the obtained data.

Chain of ATR (Q13535 whole entry): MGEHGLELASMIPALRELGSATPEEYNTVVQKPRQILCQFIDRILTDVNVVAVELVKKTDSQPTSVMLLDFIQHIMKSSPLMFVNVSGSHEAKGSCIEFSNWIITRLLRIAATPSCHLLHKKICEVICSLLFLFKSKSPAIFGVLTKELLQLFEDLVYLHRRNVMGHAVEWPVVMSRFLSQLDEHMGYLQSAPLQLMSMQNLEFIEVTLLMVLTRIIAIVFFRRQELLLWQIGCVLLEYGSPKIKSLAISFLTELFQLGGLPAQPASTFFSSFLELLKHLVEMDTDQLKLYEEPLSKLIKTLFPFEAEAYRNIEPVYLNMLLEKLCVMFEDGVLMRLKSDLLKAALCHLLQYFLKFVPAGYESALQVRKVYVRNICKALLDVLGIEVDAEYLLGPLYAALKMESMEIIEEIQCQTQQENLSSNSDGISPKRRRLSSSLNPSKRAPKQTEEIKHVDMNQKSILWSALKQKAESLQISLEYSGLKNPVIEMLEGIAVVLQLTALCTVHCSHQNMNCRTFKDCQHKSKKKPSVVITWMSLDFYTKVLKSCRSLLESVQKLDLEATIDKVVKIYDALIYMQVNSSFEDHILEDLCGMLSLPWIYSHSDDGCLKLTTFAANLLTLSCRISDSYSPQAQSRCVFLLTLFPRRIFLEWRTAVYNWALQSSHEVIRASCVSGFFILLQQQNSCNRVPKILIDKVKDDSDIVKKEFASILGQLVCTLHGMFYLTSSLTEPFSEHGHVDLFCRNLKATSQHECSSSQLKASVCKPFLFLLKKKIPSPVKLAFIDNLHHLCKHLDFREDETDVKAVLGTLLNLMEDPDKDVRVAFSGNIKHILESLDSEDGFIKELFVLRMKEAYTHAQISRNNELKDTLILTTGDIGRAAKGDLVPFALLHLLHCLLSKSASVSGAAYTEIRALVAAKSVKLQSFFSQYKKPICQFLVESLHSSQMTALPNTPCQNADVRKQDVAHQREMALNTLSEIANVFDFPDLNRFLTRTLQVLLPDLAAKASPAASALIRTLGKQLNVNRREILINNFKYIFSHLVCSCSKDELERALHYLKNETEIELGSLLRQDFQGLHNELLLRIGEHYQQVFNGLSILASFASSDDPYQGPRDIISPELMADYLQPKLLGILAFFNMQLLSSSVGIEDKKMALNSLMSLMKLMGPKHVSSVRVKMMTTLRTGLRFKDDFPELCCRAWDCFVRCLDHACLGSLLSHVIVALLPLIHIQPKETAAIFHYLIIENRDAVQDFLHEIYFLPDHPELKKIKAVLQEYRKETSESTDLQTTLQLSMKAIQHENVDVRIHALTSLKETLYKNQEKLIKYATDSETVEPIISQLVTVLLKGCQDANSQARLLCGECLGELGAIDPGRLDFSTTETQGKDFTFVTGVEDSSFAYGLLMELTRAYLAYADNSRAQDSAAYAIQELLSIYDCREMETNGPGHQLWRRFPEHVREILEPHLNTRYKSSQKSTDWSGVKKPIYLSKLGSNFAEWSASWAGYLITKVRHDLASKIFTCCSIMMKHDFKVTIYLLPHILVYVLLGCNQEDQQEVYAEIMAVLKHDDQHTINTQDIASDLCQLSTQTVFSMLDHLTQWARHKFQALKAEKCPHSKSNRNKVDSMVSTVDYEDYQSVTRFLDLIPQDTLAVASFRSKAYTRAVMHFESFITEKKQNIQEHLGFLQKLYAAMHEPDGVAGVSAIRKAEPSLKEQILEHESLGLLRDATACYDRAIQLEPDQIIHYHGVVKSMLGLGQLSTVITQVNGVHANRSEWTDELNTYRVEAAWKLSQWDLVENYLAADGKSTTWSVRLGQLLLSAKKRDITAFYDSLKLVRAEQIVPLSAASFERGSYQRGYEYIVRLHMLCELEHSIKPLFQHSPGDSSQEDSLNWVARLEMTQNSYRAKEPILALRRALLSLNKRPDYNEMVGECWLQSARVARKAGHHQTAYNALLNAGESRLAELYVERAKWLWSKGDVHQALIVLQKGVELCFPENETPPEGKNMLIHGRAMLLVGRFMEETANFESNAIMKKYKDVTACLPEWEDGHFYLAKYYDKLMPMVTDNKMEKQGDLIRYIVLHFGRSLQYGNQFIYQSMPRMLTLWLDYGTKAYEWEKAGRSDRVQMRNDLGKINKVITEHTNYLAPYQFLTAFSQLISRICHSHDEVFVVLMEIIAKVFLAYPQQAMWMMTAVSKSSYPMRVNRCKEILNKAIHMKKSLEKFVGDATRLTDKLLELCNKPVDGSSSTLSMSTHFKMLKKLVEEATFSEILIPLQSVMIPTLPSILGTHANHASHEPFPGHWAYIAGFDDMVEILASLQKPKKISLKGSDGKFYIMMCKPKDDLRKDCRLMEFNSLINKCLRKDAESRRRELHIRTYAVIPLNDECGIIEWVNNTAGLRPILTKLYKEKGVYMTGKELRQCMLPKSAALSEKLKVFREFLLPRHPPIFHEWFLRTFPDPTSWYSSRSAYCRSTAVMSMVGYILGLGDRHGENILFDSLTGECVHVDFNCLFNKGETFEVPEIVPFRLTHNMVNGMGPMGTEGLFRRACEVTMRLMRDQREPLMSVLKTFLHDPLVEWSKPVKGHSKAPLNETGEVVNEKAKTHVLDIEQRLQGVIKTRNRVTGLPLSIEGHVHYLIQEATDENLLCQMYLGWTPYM
Chain of ATR (Q8WXE1 whole entry partner): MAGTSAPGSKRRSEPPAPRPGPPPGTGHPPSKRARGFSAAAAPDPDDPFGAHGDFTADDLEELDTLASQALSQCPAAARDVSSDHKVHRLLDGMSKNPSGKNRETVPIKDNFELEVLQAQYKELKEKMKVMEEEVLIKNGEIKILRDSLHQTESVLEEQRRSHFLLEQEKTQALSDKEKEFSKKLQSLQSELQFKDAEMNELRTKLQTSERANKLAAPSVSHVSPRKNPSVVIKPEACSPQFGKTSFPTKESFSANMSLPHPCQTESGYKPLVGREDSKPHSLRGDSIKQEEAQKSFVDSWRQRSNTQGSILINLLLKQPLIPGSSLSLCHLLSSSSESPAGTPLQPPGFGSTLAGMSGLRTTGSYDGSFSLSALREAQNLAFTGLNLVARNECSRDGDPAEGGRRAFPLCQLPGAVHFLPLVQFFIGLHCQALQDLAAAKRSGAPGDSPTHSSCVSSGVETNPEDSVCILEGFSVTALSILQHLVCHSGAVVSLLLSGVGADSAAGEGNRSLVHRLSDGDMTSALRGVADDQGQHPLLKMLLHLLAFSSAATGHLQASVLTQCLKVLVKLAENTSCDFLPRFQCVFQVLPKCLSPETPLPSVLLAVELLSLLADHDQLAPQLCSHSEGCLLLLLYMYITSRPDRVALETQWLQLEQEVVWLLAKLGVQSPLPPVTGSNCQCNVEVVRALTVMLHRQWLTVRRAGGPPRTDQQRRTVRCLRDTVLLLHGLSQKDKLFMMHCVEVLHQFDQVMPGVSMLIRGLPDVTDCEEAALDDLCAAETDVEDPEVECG

Work on C[C@@H]1COCCN1c1cc(N2CC3CCC(C2)O3)nc2c(-c3cc[nH]n3)cnn12 [Example 1, 3-(7-((R)-3-methylmorpholino)-3-(1H-pyrazol-3-yl)pyrazolo[1,5-a]pyrimidin-5-yl)-8-oxa-3-azabicyclo[3.2.1]octane] yielded a solubility at 24 h [1] of 1140 µg/mL (≈ 2880 µM), an IC50 (ATR) of 17.4 nM and a CL_obs ([2]; IV dose 1 mg/kg) of 18.3 mL/min/kg. It also gave a half-life ([2]; mouse, plasma, IV dose 1 mg/kg) of 1.51 h, a Vd ([2]; mouse, plasma, IV dose 1 mg/kg, read-out: Vss) of 1.68 L/kg and a half-life ([2]; mouse, plasma, Po dose 5 mg/kg) of 2.57 h. It also gave a bioavailability ([2]; mouse, plasma, Po dose 5 mg/kg vs IV dose 1 mg/kg) of 75.6%, a C0 ([2]; mouse, IV dose 1 mg/kg, plasma) of 823 ng/mL and an AUC(0-t) ([2]; mouse, IV dose 1 mg/kg, plasma) of 925 ng·h/mL. The Cmax ([2]; mouse, Po dose 5 mg/kg, plasma) was 1080 ng/mL and the AUC(0-t) ([2]; mouse, Po dose 5 mg/kg, plasma) was 3440 ng·h/mL.
